Calls of active or inactive are those of the source.
Key:
[1] = target: Luciferin 4-monooxygenase (Photinus pyralis, UniProt P08659); experiment: firefly luciferase enzyme inhibitors, dose response, biochemical, luminescence (AID 1891)
[2] = Luminescence Cell-Based Dose Confirmation HTS to Identify Inhibitors of Platelet Dense Granule Release. [Related pubchem assays: 1663 (Primary HTS), 1678 (Summary of Project)]; format: functional
[3] = inhibitors of firefly luciferase expression or activity, dose response, H4 neuroglioma cells, luminescence (AID 1990); format: functional, cell-based
[4] = Luminescence Cell-Based Dose Response HTS to Identify Inhibitors of 5'UTR Stem-Loop Driven Prion Protein mRNA Translation in H4 Neuroglioblastoma Cells. [Related pubchem assays: 1827 (Project Summary), 1813 (Primary HTS)]; format: functional
[5] = inhibitors of SNCA 5'UTR-driven reporter translation, confirmation, H4 neuroglioma cells, luminescence (AID 1988); format: functional, cell-based
[6] = target: T1, Cytochrome P450 1A2 (Homo sapiens, UniProt P05177);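 further: PubChem cytochrome P450 panel assay, CYP1A2 panel member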
T1 sequence (P05177 whole entry): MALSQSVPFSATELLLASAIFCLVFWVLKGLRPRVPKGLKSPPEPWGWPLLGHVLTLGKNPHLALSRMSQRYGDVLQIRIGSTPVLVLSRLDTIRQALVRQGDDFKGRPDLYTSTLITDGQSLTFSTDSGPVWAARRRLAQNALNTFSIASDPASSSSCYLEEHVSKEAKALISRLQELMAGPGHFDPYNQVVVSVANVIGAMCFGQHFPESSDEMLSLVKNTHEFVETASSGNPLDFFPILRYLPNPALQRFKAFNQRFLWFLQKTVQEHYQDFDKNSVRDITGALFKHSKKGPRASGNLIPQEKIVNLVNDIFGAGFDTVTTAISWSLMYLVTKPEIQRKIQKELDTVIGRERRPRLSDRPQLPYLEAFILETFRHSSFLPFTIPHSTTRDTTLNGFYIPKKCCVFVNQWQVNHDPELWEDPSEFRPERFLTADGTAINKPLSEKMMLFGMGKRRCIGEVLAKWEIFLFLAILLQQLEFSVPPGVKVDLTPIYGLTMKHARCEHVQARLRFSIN

[7] = target: Cytochrome P450 2C9 (Homo sapiens, UniProt P11712)
Cytochrome P450 2C9, sequence (P11712 whole entry): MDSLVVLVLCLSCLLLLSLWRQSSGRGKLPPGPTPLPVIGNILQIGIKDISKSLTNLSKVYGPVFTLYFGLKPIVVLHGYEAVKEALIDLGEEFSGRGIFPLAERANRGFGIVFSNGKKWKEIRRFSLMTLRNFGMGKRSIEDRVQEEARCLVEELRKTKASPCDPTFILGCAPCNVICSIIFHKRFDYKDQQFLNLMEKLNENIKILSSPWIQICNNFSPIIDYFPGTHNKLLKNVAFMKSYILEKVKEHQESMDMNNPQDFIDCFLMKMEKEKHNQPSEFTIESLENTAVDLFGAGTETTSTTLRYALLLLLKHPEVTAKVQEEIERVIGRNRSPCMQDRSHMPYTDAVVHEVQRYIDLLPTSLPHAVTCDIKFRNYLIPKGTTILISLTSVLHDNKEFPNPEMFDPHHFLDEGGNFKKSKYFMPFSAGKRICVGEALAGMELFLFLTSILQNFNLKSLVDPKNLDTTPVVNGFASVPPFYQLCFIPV

[8] = target: T2, Corticotropin-releasing factor receptor 2/Corticotropin-releasing factor-binding protein (Homo sapiens, UniProt P24387+Q13324); experiment: Dose Response confirmation of uHTS hits for small molecule antagonists of the CRF-binding protein and CRF-R2 receptor complex.; format: functional; conditions: read-out: IC50_Mean
T2 sequence (Q13324 whole entry): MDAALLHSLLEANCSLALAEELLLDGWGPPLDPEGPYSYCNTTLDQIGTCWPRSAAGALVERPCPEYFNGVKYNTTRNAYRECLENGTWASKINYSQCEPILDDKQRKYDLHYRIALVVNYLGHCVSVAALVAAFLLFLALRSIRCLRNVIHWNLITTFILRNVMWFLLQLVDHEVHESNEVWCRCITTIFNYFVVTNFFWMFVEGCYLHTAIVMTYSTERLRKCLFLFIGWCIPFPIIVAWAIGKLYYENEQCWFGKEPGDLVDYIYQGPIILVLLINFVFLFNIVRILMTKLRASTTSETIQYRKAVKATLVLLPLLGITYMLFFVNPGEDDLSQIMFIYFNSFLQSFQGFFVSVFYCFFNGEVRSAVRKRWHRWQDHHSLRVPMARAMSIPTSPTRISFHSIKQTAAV
T2 sequence (P24387 whole entry): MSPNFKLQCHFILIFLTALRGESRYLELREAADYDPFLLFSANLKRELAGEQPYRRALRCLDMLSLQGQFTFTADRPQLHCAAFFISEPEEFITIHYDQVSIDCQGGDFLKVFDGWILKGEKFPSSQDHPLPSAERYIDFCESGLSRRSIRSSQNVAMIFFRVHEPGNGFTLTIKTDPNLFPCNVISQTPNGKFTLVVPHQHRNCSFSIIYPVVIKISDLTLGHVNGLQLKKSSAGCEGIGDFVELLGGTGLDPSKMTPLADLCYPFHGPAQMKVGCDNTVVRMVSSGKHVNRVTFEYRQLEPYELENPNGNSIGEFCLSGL

[9] = target: T2, Corticotropin-releasing factor receptor 2/Corticotropin-releasing factor-binding protein; experiment: activators of CRF receptor 2 with binding protein – uHTS hits, confirmation (AID 602473); format: functional; conditions: read-out: EC50_Mean
[10] = target: Cytochrome P450 3A4 (Homo sapiens, UniProt P08684);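 further: CYP3A4 tested as one member of a cytochrome P450 panel screen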
Cytochrome P450 3A4, sequence (P08684 whole entry): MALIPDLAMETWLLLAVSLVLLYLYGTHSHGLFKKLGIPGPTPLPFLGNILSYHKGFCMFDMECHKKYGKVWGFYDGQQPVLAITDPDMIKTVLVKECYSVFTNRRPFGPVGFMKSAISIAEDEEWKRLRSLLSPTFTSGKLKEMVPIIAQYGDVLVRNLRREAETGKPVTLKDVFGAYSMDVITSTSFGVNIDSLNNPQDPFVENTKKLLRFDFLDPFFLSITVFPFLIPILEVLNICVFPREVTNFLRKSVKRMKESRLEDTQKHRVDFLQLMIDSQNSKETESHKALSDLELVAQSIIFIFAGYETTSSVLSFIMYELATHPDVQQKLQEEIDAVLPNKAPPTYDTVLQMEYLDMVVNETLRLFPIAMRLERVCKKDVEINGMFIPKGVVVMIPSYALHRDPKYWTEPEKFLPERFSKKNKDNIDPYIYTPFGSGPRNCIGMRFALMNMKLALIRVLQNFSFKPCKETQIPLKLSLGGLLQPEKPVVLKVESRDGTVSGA

[11] = target: Cytochrome P450 2C19 (Homo sapiens, UniProt P33261); experiment: Cytochrome panel assay with activity outcomes. Panel member name: p450-cyp2c19 Compounds with AC50 equal or less than 10 uM are considered active; format: functional; conditions: read-out: AC50
Cytochrome P450 2C19, sequence (P33261 whole entry): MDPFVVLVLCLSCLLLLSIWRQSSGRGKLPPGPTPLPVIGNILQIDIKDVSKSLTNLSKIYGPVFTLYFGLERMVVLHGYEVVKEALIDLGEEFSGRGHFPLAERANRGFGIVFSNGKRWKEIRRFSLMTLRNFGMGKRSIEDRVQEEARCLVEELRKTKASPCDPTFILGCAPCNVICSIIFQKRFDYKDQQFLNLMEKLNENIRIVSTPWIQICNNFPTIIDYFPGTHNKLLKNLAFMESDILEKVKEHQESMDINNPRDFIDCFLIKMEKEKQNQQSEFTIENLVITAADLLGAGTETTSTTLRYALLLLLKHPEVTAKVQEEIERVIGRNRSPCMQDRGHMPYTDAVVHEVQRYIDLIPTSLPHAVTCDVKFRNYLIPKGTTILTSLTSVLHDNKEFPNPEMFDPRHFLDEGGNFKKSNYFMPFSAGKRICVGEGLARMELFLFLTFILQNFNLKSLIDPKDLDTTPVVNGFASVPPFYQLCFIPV

[12] = target: T3, Ubiquitin-conjugating enzyme E2 N (Homo sapiens, UniProt P61088); format: functional;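 further: Dose-response confirmation in a TR-FRET assay detecting UBC13-driven polyubiquitin chain formation, inhibition measured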
T3 sequence (P61088 whole entry): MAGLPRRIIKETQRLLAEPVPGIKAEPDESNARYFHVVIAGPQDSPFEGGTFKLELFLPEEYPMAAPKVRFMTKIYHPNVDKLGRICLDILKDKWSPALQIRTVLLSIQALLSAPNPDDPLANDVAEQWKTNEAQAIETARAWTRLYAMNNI

[13] = HEp-2 cell cytotoxicity, dose response, cytotoxicity control for RSV inhibitor project, HTS (AID 2410); format: functional; conditions: human respiratory syncytial virus
[14] = inhibitors of intracellular T. cruzi replication, confirmation, NIH3T3 host cells, beta-gal luminescence (AID 2044); format: functional, cell-based;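 further: intracellular parasites grown in NIH/3T3 mouse fibroblasts as host cells; luminescent beta-galactosidase reporter signal from transgenic T. cruzi replicating inside host cells; inhibitors lower the luminescence signal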
[15] = cytotoxicity toward NIH3T3 fibroblasts, dose response, counter-screen, cell-based, ATP luminescence, mouse fibroblasts (AID 2010); format: functional;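 further: cells exposed to compound for about 90 hours before reading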
[16] = target: Cytochrome P450 2D6 (Homo sapiens, UniProt P10635);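 further: CYP2D6 member of a cytochrome P450 panel assay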
Cytochrome P450 2D6, sequence (P10635 whole entry): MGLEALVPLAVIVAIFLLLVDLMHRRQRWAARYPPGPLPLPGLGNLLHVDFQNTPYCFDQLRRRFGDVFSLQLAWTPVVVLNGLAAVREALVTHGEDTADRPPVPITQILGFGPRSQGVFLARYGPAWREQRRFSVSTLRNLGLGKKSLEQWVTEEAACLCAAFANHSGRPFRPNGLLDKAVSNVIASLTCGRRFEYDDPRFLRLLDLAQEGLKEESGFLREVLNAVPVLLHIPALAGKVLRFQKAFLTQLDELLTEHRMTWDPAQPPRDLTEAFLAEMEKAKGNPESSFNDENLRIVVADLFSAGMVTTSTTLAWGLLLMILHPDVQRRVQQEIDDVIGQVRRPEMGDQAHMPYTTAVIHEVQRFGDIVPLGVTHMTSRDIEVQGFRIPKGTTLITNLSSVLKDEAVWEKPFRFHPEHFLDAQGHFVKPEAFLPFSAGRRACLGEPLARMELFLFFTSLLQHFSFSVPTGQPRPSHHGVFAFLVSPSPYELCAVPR

[17] = Shn3 3'UTR reporter inhibitors, dose response, cell-based, Clone20 osteoblasts, firefly luciferase, cherry-picked (AID 624132); format: functional;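 further: firefly luciferase luminescence from reporter carrying the Shn3 3'UTR in osteoblasts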
[18] = HepG2 cell cytotoxicity, dose response, cytotoxicity control for Shn3 inhibitor project, CellTiter-Glo, cherry-picked (AID 624134); format: functional, cell-based
[19] = control 3'UTR Renilla luciferase suppression, dose response, counter-screen for Shn3 inhibitor project, cell-based, Clone20-Shn3RL, cherry-picked (AID 624133); format: functional

Luciferin 4-monooxygenase, sequence (P08659 whole entry): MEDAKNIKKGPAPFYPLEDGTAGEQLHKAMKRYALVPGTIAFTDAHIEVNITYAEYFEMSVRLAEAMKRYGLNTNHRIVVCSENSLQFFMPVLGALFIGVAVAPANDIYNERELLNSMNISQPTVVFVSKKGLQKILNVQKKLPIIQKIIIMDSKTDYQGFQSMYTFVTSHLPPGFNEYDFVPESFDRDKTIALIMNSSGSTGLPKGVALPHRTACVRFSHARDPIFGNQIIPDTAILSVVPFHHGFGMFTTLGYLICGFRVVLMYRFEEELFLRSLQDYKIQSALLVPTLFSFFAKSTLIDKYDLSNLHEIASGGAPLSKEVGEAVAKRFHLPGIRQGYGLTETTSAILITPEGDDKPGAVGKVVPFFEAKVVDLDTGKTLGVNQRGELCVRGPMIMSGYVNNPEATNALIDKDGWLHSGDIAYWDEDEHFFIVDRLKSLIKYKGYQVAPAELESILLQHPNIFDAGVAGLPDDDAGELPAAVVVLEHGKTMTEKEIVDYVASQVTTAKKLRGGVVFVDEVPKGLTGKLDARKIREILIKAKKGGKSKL

Cc1ccsc1C(=O)Nc1nc2ccccc2[nH]1
EC50 [1]: 2.67 µM (active) | EC50 [2]: 4.71 µM (active)

Cc1ccccc1N=C(S)c1ccc2ccccc2n1
EC50 [1]: > 112 µM (not active) | EC50 [2]: > 112 µM (not active)

CC(C)CCn1nc(C(=O)Nc2nc3c(s2)CCCC3)c2ccccc2c1=O
EC50 [3]: 16.9 µM (active) | EC50 [4]: 12.9 µM (active) | EC50 [5]: 12.8 µM (active)

Cc1cc(C)c(S(=O)(=O)Nc2cccc(C(F)(F)F)c2)c(C)c1
AC50 [6]: 39.8 µM (inconclusive)

Cc1ccc(NC(=O)c2sccc2C)nc1
EC50 [1]: 13.9 µM (active) | EC50 [2]: 5.98 µM (active)

O=C(c1ccncc1)N1CCC[C@@]2(CCN(c3ccccn3)C2)C1
AC50 [6]: 20 µM (inconclusive) | AC50 [7]: 20 µM (inconclusive)

Cc1ccc(S(=O)(=O)N2CCCC2C(=O)O)cc1 (stereo not drawn)
EC50 [1]: > 112 µM (not active) | EC50 [2]: > 112 µM (not active)

N#Cc1nc(Nc2cccc(Cl)c2)c2ncn(C3CCCC3)c2n1
IC50 [8]: > 47.1 µM (inactive) | EC50 [9]: > 53 µM (inactive)

CCOC(=O)c1cc(C)sc1NC(=O)CCC(=O)O
IC50 [8]: > 47.1 µM (inactive) | EC50 [9]: > 53 µM (inactive)

CCNc1ncc2nc(-c3ccc(OC)cc3)c(=O)n(CCOC)c2n1
AC50 [6]: 1.26 µM (inconclusive) | AC50 [10]: 15.8 µM (inconclusive)

Cc1nc2cc(NC(=O)Nc3cccc(F)c3)ccc2n1C
EC50 [1]: 5.89 µM (active) | EC50 [2]: 7.45 µM (active)

Sc1nnc(CSCc2ccccc2Cl)n1-c1ccccc1
AC50 [6]: 22.4 µM (inconclusive) | AC50 [7]: 5.01 µM (inconclusive)

Cc1ccc(CNc2nc(N)c([N+](=O)[O-])c(Nc3ccc(F)cc3)n2)cc1
AC50 [6]: 1.12 µM (inconclusive) | AC50 [10]: 2 µM (inconclusive) | AC50 [7]: 3.55 µM (inconclusive)

O=C(O)CCC/C=C\C[C@@H]1CO[C@H](C(F)(F)F)O[C@@H]1c1ccccc1O
AC50 [11]: 10 µM (inconclusive) | AC50 [6]: 39.8 µM (inconclusive) | AC50 [10]: 15.8 µM (inconclusive) | AC50 [7]: 20 µM (inconclusive)

CS(=O)(=O)N1CCN(c2c(Cl)cccc2[N+](=O)[O-])CC1
AC50 [6]: 28.2 µM (inconclusive) | AC50 [7]: 0.251 µM (inconclusive)

CCOc1cccc(-c2c(C(=O)N/N=C/c3ccco3)nnn2-c2nonc2N)c1
EC50 [1]: > 112 µM (not active) | EC50 [2]: 14.8 µM (active)

CN(C)CCN(C)CCc1ccc(Cl)c(Cl)c1
AC50 [6]: 39.8 µM (inconclusive)

Cc1ccc(-n2nc3c(=O)n(CC(=O)NCc4ccc(C)o4)nc(C)c3c2C)cc1
EC50 [3]: 17.8 µM (active) | EC50 [4]: 109 µM (active) | EC50 [5]: > 120 µM (not active)

CCC[C@@H](CN1CCC[C@H]1CN1C(N)=NC[C@H]1C(C)C)N1C[C@@H](Cc2ccccc2)N(CCCC2CCCC2)C1=N
IC50 [12]: > 20 µM (inactive)

O=C(CSc1nnc2ccccn12)NNC(=O)c1ccc([N+](=O)[O-])cc1
EC50 [1]: > 112 µM (not active) | EC50 [2]: > 112 µM (not active)

Cc1cccc(N2CCc3c2nc2ccccc2c3N)c1
IC50 [12]: > 20 µM (inactive)

COc1ccccc1-c1cc(C(=O)N2CCN(c3ccccc3)CC2)no1
CC50 [13]: 31.9 µM (active)

CCc1ccc2oc(-c3cc(N)ccc3Cl)nc2c1
CC50 [13]: 41.3 µM (active)

Nc1nc2sc3c(c2cc1C(=O)N1CCOCC1)CCCC3
EC50 [1]: > 112 µM (not active) | EC50 [2]: > 112 µM (not active)

COc1ccccc1OC[C@H](O)COC(N)=O
AC50 [6]: 10 µM (inconclusive)

C#CCOCCOCCOCCNc1nc(N2CCN(C(=O)[C@H]([C@@H](C)CC)n3cc(CCCCN)nn3)CC2)nc(N2CCN(C(=O)[C@H]([C@@H](C)CC)n3cc(CCCN=C(N)N)nn3)CC2)n1
IC50 [12]: > 20 µM (inactive)

CC1(C)Cc2nc3sc4c(SCC(=O)NCc5ccccc5)ncnc4c3cc2CO1
EC50 [4]: > 120 µM (not active) | EC50 [5]: 3.72 µM (active)

NCC12CC3CC(C1)CC(c1ccc(Cl)cc1)(C3)C2
EC50 [14]: 2.19 µM (active) | EC50 [15]: > 60 µM (inconclusive) | IC50 [12]: > 20 µM (inactive)

O=C(O)[C@H]1C[C@@H](CP(=O)(O)O)CCN1
AC50 [6]: 25.1 µM (inconclusive)

Clc1cccc(-c2nn3c(Cn4cnc5ccccc54)nnc3s2)c1
CC50 [13]: > 50 µM (active)

Cc1ccccc1/C=N/NC1=NC(=O)CCS1
CC50 [13]: 26.4 µM (active)

Cc1ccc(S(=O)(=O)N2CCN(C(=O)CN3CCN(C)CC3)C2)cc1
AC50 [11]: 28.2 µM (inconclusive) | AC50 [6]: 15.8 µM (inconclusive)

O=C(CSc1nnc(-c2cccc(S(=O)(=O)N3CCOCC3)c2)n1C1CCCCCC1)NCc1ccccc1
AC50 [11]: 31.6 µM (inconclusive) | AC50 [16]: 7.94 µM (inconclusive) | AC50 [6]: 39.8 µM (inconclusive) | AC50 [7]: 14.1 µM (inconclusive)

COc1ccc(-c2nn(-c3ccccc3)cc2C(=O)O)cc1
EC50 [1]: > 112 µM (not active) | EC50 [2]: > 112 µM (not active)

O=C(CN1CCCCC1)Nc1cccc([N+](=O)[O-])c1
AC50 [11]: 14.1 µM (inconclusive) | AC50 [16]: 15.8 µM (inconclusive) | AC50 [6]: 39.8 µM (inconclusive)

CCCC(=O)Nc1cc(C(=O)N2CCC3(CC2)OCCO3)ccc1S(=O)(=O)c1ccc(C)cc1
EC50 [3]: > 120 µM (not active) | EC50 [4]: > 120 µM (not active) | EC50 [5]: > 120 µM (not active)

CO/C(O)=C1\C(C)=Nc2nnnn2C1c1cc(OC)ccc1OC (stereo not drawn)
EC50 [3]: > 120 µM (not active) | EC50 [4]: 18.3 µM (active) | EC50 [5]: > 120 µM (not active)

Clc1ccc(-c2cs/c(=N\c3cccnc3)n2CCCn2ccnc2)cc1Cl
CC50 [13]: 15.4 µM (active)

COC(=O)c1c(-c2cccc3ccccc23)csc1NC(=O)Cc1ccc(OC)c(OC)c1
EC50 [1]: > 112 µM (not active) | EC50 [2]: > 112 µM (not active) | EC50 [14]: 2.49 µM (active) | EC50 [15]: 12.6 µM (active) | AC50 [17]: 5.43 µM (active) | AC50 [18]: > 70 µM (inactive) | AC50 [19]: 16.9 µM (active)

CCOC(=O)c1c(NC(=O)Cc2cccs2)sc(C(=O)N2CCCCC2)c1C
EC50 [3]: 14.6 µM (active) | EC50 [4]: 22.2 µM (active) | EC50 [5]: > 120 µM (not active)

COC(=O)[C@@]1(Cc2ccc(OC)cc2)[C@@H]2[C@@H](CC(=O)[C@H]2CC(=O)C(=O)N(C)C)CN1C(=O)c1ccccc1
AC50 [6]: 2 µM (inconclusive) | AC50 [7]: 39.8 µM (inconclusive)

C#CCOCCOCCOCCNc1nc(N2CCN(C(=O)C([C@@H](C)O)n3cc([C@@H](N)CCCCN)nn3)CC2)nc(N2CCN(C(=O)[C@H](CCCCN)n3cc([C@@H](N)CC(N)=O)nn3)CC2)n1 (stereo partly drawn)
IC50 [12]: > 20 µM (inactive)

Reference: ChEMBL document CHEMBL1201862, “PubChem BioAssay data set” (2004)
